Measurements from ChEMBL document CHEMBL2440076, “New triarylpyrazoles as broad-spectrum anticancer agents: design, synthesis, and biological evaluation” (Eur J Med Chem, 2013).

Key:
Assay type in all cases: functional
OVCAR-4 = assay: Growth inhibition of human OVCAR4 cells assessed as cell growth at 5X10'-6 M after 48 hrs by sulforhodamine B assay; details: OVCAR-4, 48 h, read-out: Activity
UO-31 [1] = assay: Growth inhibition of human UO31 cells assessed as cell growth at 5X10'-6 M after 48 hrs by sulforhodamine B assay; details: UO-31, 48 h, read-out: Activity
SNB-75 = assay: Growth inhibition of human SNB75 cells assessed as cell growth at 3X10'-7 M after 48 hrs by sulforhodamine B assay; details: SNB-75, 48 h, read-out: Activity
T47D = assay: Growth inhibition of human T47D cells assessed as cell growth at 3X10'-7 M after 48 hrs by sulforhodamine B assay; details: read-out: Activity
SF-295 [2] = assay: Growth inhibition of human SF295 cells assessed as cell growth at 3X10'-6 M after 48 hrs by sulforhodamine B assay; details: SF-295, 48 h, read-out: Activity
RXF 393 = assay: Growth inhibition of human RXF393 cells assessed as cell growth at 3X10'-6 M after 48 hrs by sulforhodamine B assay; details: RXF 393, 48 h, read-out: Activity
NCI-H226 = assay: Growth inhibition of human NCI-H226 cells assessed as cell growth at 3X10'-8 M after 48 hrs by sulforhodamine B assay; details: NCI-H226, 48 h, read-out: Activity
ACHN = assay: Growth inhibition of human ACHN cells assessed as cell growth at 3X10'-9 M after 48 hrs by sulforhodamine B assay; details: read-out: Activity
TK-10 = assay: Growth inhibition of human TK10 cells assessed as cell growth at 3X10'-6 M after 48 hrs by sulforhodamine B assay; details: TK-10, 48 h, read-out: Activity
SW-620 = assay: Growth inhibition of human SW620 cells assessed as cell growth at 3X10'-5 M after 48 hrs by sulforhodamine B assay; details: SW-620, 48 h, read-out: Activity
NCI-H460 [3] = assay: Growth inhibition of human NCI-H460 cells assessed as cell growth at 3X10'-5 M after 48 hrs by sulforhodamine B assay; details: NCI-H460, 48 h, read-out: Activity
NCI-H322M = assay: Growth inhibition of human NCI-H322M cells assessed as cell growth at 3X10'-6 M after 48 hrs by sulforhodamine B assay; details: read-out: Activity
SF-295 [4] = assay: Growth inhibition of human SF295 cells assessed as cell growth at 3X10'-8 M after 48 hrs by sulforhodamine B assay; details: SF-295, 48 h, read-out: Activity
UO-31 [5] = assay: Growth inhibition of human UO31 cells assessed as cell growth at 3X10'-7 M after 48 hrs by sulforhodamine B assay; details: UO-31, 48 h, read-out: Activity
OVCAR-8 [6] = assay: Growth inhibition of human OVCAR8 cells assessed as cell growth at 3X10'-7 M after 48 hrs by sulforhodamine B assay; details: OVCAR-8, 48 h, read-out: Activity
NCI-H23 = assay: Growth inhibition of human NCI-H23 cells assessed as cell growth at 3X10'-9 M after 48 hrs by sulforhodamine B assay; details: NCI-H23, 48 h, read-out: Activity
COLO 205 = assay: Growth inhibition of human COLO205 cells assessed as cell growth at 3X10'-9 M after 48 hrs by sulforhodamine B assay; details: COLO 205, 48 h, read-out: Activity
NCI-H460 [7] = assay: Growth inhibition of human NCI-H460 cells assessed as cell growth at 3X10'-6 M after 48 hrs by sulforhodamine B assay; details: NCI-H460, 48 h, read-out: Activity
K562 = assay: Growth inhibition of human K562 cells assessed as cell growth at 3X10'-5 M after 48 hrs by sulforhodamine B assay; details: K562, 48 h, read-out: Activity
HL-60(TB) = assay: Growth inhibition of human HL-60(TB) cells assessed as cell growth at 3X10'-7 M after 48 hrs by sulforhodamine B assay; details: HL-60, 48 h, read-out: Activity
UACC-257 = assay: Growth inhibition of human UACC257 cells assessed as cell growth at 3X10'-5 M after 48 hrs by sulforhodamine B assay; details: UACC-257, 48 h, read-out: Activity
OVCAR-5 = assay: Growth inhibition of human OVCAR5 cells assessed as cell growth at 3X10'-9 M after 48 hrs by sulforhodamine B assay; details: OVCAR-5, 48 h, read-out: Activity
MOLT-4 = assay: Growth inhibition of human MOLT4 cells assessed as cell growth at 3X10'-5 M after 48 hrs by sulforhodamine B assay; details: MOLT-4, 48 h, read-out: Activity
RPMI-8226 = assay: Growth inhibition of human RPMI8226 cells assessed as cell growth at 3X10'-7 M after 48 hrs by sulforhodamine B assay; details: RPMI-8226, 48 h, read-out: Activity
SK-MEL-2 = assay: Growth inhibition of human SK-MEL-2 cells assessed as cell growth at 3X10'-6 M after 48 hrs by sulforhodamine B assay; details: SK-MEL-2, 48 h, read-out: Activity
SK-OV-3 = assay: Growth inhibition of human SKOV3 cells assessed as cell growth at 3X10'-9 M after 48 hrs by sulforhodamine B assay; details: SK-OV-3, 48 h, read-out: Activity
SK-MEL-5 = assay: Growth inhibition of human SK-MEL-5 cells assessed as cell growth at 3X10'-5 M after 48 hrs by sulforhodamine B assay; details: SK-MEL-5, 48 h, read-out: Activity
OVCAR-8 [8] = assay: Growth inhibition of human OVCAR8 cells assessed as cell growth at 3X10'-5 M after 48 hrs by sulforhodamine B assay; details: OVCAR-8, 48 h, read-out: Activity
MDA-MB-231 = assay: Growth inhibition of human MDA-MB-231 cells assessed as cell growth at 3X10'-5 M after 48 hrs by sulforhodamine B assay; details: MDA-MB-231, 48 h, read-out: Activity
NCI-H522 = assay: Growth inhibition of human NCI-H522 cells assessed as cell growth at 3X10'-9 M after 48 hrs by sulforhodamine B assay; details: NCI-H522, 48 h, read-out: Activity
HOP-62 = assay: Growth inhibition of human HOP62 cells assessed as cell growth at 3X10'-5 M after 48 hrs by sulforhodamine B assay; details: HOP-62, 48 h, read-out: Activity
SF-268 = assay: Growth inhibition of human SF268 cells assessed as cell growth at 3X10'-6 M after 48 hrs by sulforhodamine B assay; details: SF-268, 48 h, read-out: Activity
HCT-15 = assay: Growth inhibition of human HCT15 cells assessed as cell growth at 3X10'-5 M after 48 hrs by sulforhodamine B assay; details: HCT-15, 48 h, read-out: Activity
UACC-62 = assay: Growth inhibition of human UACC62 cells assessed as cell growth at 3X10'-8 M after 48 hrs by sulforhodamine B assay; details: UACC-62, 48 h, read-out: Activity
SK-MEL-28 = assay: Growth inhibition of human SK-MEL-28 cells assessed as cell growth at 3X10'-7 M after 48 hrs by sulforhodamine B assay; details: SK-MEL-28, 48 h, read-out: Activity

Work on `COc1cc(-c2nn(-c3cccc(NC(=O)Nc4ccc(Cl)c(Cl)c4)c3)cc2-c2ccncc2)ccc1Cl` yielded a growth at 5 µM (OVCAR-4) of 6%.
For `COc1cc(-c2nn(-c3cccc(NC(=O)Nc4cccc(C(F)(F)F)c4)c3)cc2-c2ccncc2)ccc1Cl`, the growth at 5 µM (UO-31 [1]) was -15% and the growth at 5 µM (OVCAR-4) was 6%.
For `COc1cc(-c2nn(-c3cccc(NC(=O)Nc4ccc(Cl)c(C(F)(F)F)c4)c3)cc2-c2ccncc2)ccc1Cl`, the growth at 0.3 µM (SNB-75) was 88%, the growth at 0.3 µM (T47D) was 95% and the growth at 3 µM (SF-295 [2]) was -11%. For the same compound, the growth at 3 µM (RXF 393) was 20%, the growth at 0.03 µM (NCI-H226) was 92% and the growth at 0.003 µM (ACHN) was 102%. It also gave a growth at 3 µM (TK-10) of 25%, a growth at 30 µM (SW-620) of -1% and a growth at 30 µM (NCI-H460 [3]) of -28%. The growth at 3 µM (NCI-H322M) was 29%, the growth at 0.03 µM (SF-295 [4]) was 90% and the growth at 0.3 µM (UO-31 [5]) was 85%. It also gave a growth at 0.3 µM (OVCAR-8 [6]) of 97%, a growth at 0.003 µM (NCI-H23) of 100% and a growth at 0.003 µM (COLO 205) of 106%. It also gave a growth at 3 µM (NCI-H460 [7]) of 6%, a growth at 30 µM (K562) of 1% and a growth at 0.3 µM (HL-60(TB)) of 110%. For the same compound, the growth at 30 µM (UACC-257) was -53%, the growth at 0.003 µM (OVCAR-5) was 99% and the growth at 30 µM (MOLT-4) was -15%. For the same compound, the growth at 0.3 µM (RPMI-8226) was 87%, the growth at 3 µM (SK-MEL-2) was -12% and the growth at 0.003 µM (SK-OV-3) was 105%. For the same compound, the growth at 30 µM (SK-MEL-5) was -94%, the growth at 30 µM (OVCAR-8 [8]) was -13% and the growth at 30 µM (MDA-MB-231) was -76%. The growth at 0.003 µM (NCI-H522) was 106%, the growth at 30 µM (HOP-62) was -51% and the growth at 3 µM (SF-268) was 25%. The growth at 30 µM (HCT-15) was -35%, the growth at 0.03 µM (UACC-62) was 94% and the growth at 0.3 µM (SK-MEL-28) was 95%.
Compound `COc1cc(-c2nn(-c3cccc(NC(=O)Nc4cc(C(F)(F)F)cc(C(F)(F)F)c4)c3)cc2-c2ccncc2)ccc1Cl` has a growth at 5 µM (UO-31 [1]) of -90% and a growth at 5 µM (OVCAR-4) of 8%.
In the case of `COc1cc(-c2nn(-c3cccc(NC(=O)c4cccc(C(F)(F)F)c4)c3)cc2-c2ccncc2)ccc1Cl`, the growth at 5 µM (UO-31 [1]) is reported as 20% and the growth at 5 µM (OVCAR-4) is reported as 34%.
